Columns and labels:
[1] = Mutagenicity in Salmonella typhimurium TA1535 assessed as inhibition of bacterial growth at 0.152 to 333 ug incubated in presence of S9 fraction by micro-Ames test; type: toxicity, subcellular, Salmonella enterica subsp. enterica serovar Typhimurium; settings: dose 0.152-333 µg
[2] = Mutagenicity in Salmonella typhimurium TA100 assessed as inhibition of bacterial growth at 0.152 to 333 ug incubated in absence of S9 fraction by micro-Ames test; type: toxicity, Salmonella enterica subsp. enterica serovar Typhimurium; settings: in vivo; dose 0.152-333 µg
SARS-CoV-2 [3] = test: Antiviral activity against SARS-CoV-2 hCoV-19/Japan/TKYS02037/2022 (omicron BA.2) infected in Vero E6 cells preincubated with cells for 1 day followed by viral infection and measured after 3 days by qRT-PCR analysis; type: functional, organism-based; settings: Severe acute respiratory syndrome coronavirus 2, hCoV-19/Japan/TKYS02037/2022 (omicron BA.2), Vero C1008
[4] = Cytotoxicity against human HepG2 cells; type: toxicity, cell-based
[5] = Mutagenicity in Salmonella typhimurium TA1537 assessed as inhibition of bacterial growth at 0.152 to 333 ug incubated in presence of S9 fraction by micro-Ames test; type: toxicity, subcellular, Salmonella enterica subsp. enterica serovar Typhimurium; settings: dose 0.152-333 µg
[6] = Mutagenicity in Escherichia coli WP2uvrA assessed as fold increase in number of revertants at 0.152 to 333 ug incubated in absence of S9 fraction by micro-Ames test relative to control; type: toxicity; settings: in vivo; dose 0.152-333 µg
[7] = Mutagenicity in Salmonella typhimurium TA1537 assessed as fold increase in number of revertants at 0.152 to 333 ug incubated in absence of S9 fraction by micro-Ames test relative to control; type: toxicity, Salmonella enterica subsp. enterica serovar Typhimurium; settings: in vivo; dose 0.152-333 µg
SARS-CoV-2 [8] = test: Antiviral activity against SARS-CoV-2 JPN/TY/WK-521 infected in Vero E6 cells preincubated with cells for 1 day followed by viral infection and measured after 3 days by qRT-PCR analysis; type: functional, organism-based; settings: Severe acute respiratory syndrome coronavirus 2, JPN/TY/WK-521, Vero C1008
SARS-CoV-2 [9] = test: Antiviral activity against SARS-CoV-2 infected in Vero E6 cells preincubated with cells for 1 day in presence of HCl treated compound followed by viral infection and measured after 3 days by qRT-PCR analysis; type: functional, organism-based; settings: Severe acute respiratory syndrome coronavirus 2, Vero C1008
[10] = Mutagenicity in Escherichia coli WP2uvrA assessed as inhibition of bacterial growth at 0.152 to 333 ug incubated in absence of S9 fraction by micro-Ames test; type: toxicity; settings: in vivo; dose 0.152-333 µg
[11] = Stability of compound in 50% MeCN in H2O incubated for 24 hrs at room temperature by RP-HPLC analysis; type: physicochemical
[12] = Mutagenicity in Salmonella typhimurium TA1535 assessed as fold increase in number of revertants at 0.152 to 333 ug incubated in presence of S9 fraction by micro-Ames test relative to control; type: toxicity, subcellular, Salmonella enterica subsp. enterica serovar Typhimurium; settings: dose 0.152-333 µg
[13] = Cytotoxicity against African green monkey Vero E6 cells in presence of P-glycoprotein inhibitor, CP100356; type: toxicity, cell-based, Vero C1008; settings: chlorocebus sabaeus, with CP100356 (P-glycoprotein inhibitor)
[14] = Mutagenicity in Salmonella typhimurium TA98 assessed as fold increase in number of revertants at 0.152 to 333 ug incubated in presence of S9 fraction by micro-Ames test relative to control; type: toxicity, subcellular, Salmonella enterica subsp. enterica serovar Typhimurium; settings: dose 0.152-333 µg
SARS-CoV-2 [15] = test: Antiviral activity against SARS-CoV-2 infected in Vero E6 cells preincubated with cells for 1 day in absence of HCl followed by viral infection and measured after 3 days by qRT-PCR analysis; type: functional, organism-based; settings: Severe acute respiratory syndrome coronavirus 2, Vero C1008
SARS-CoV-2 [16] = test: Antiviral activity against SARS-CoV-2 JPN/TY/WK-521 infected in Vero E6 cells assessed as fold change preincubated with cells for 1 day followed by viral infection and measured after 3 days by qRT-PCR analysis relative to TKB245; type: functional, Severe acute respiratory syndrome coronavirus 2; settings: time 4 day
Vero C1008 = test: Cytotoxicity against African green monkey Vero E6 cells infected with SARS-CoV-2 WK-521 upto 100 uM incubated for 3 days by immunostaining analysis; type: toxicity, cell-based; settings: chlorocebus sabaeus, vero c1008, 72 h, time 3 day
[17] = Mutagenicity in Escherichia coli WP2uvrA assessed as inhibition of bacterial growth at 0.152 to 333 ug incubated in presence of S9 fraction by micro-Ames test; type: toxicity, subcellular; settings: dose 0.152-333 µg
MOLT-4 = test: Cytotoxicity against human MOLT-4 cells assessed as reduction in cell viability at 3 uM incubated for 12 days by CCK-8 assay; type: toxicity, cell-based; settings: molt-4, 288 h, time 12 day
[18] = Cytotoxicity against human HeLa cells expressing ACE2 and TMPRSS2; type: toxicity, cell-based
[19] = Mutagenicity in Escherichia coli WP2uvrA assessed as fold increase in number of revertants at 0.152 to 333 ug incubated in presence of S9 fraction by micro-Ames test relative to control; type: toxicity, subcellular; settings: dose 0.152-333 µg
[20] = Mutagenicity in Salmonella typhimurium TA98 assessed as inhibition of bacterial growth at 0.152 to 333 ug incubated in absence of S9 fraction by micro-Ames test; type: toxicity, Salmonella enterica subsp. enterica serovar Typhimurium; settings: in vivo; dose 0.152-333 µg
[21] = Mutagenicity in Salmonella typhimurium TA1535 assessed as fold increase in number of revertants at 0.152 to 333 ug incubated in absence of S9 fraction by micro-Ames test relative to control; type: toxicity, Salmonella enterica subsp. enterica serovar Typhimurium; settings: in vivo; dose 0.152-333 µg
[22] = Mutagenicity in Salmonella typhimurium TA98 assessed as inhibition of bacterial growth at 0.152 to 333 ug incubated in presence of S9 fraction by micro-Ames test; type: toxicity, subcellular, Salmonella enterica subsp. enterica serovar Typhimurium; settings: dose 0.152-333 µg
[23] = Mutagenicity in Salmonella typhimurium TA98 assessed as fold increase in number of revertants at 0.152 to 333 ug incubated in absence of S9 fraction by micro-Ames test relative to control; type: toxicity, Salmonella enterica subsp. enterica serovar Typhimurium; settings: in vivo; dose 0.152-333 µg
SARS-CoV-2 [24] = test: Antiviral activity against SARS-CoV-2 assessed as fold change relative to YH-53; type: functional, Severe acute respiratory syndrome coronavirus 2
[25] = Oral bioavailability in PXB mouse at 10 mg/kg measured for 24 hrs; type: ADME, organism-based; settings: in vivo
[26] = Cytotoxicity against African green monkey Vero E6 cells incubated for 3 days by WST-8 assay; type: toxicity, cell-based, Vero C1008; settings: chlorocebus sabaeus, time 3 day
[27] = Stability of compound in DMSO incubated for 7 days at -18 degreeC by RP-HPLC analysis; type: physicochemical; settings: 168 h; time 7 day
[28] = biological target: Replicase polyprotein 1ab (Severe acute respiratory syndrome coronavirus 2, UniProt P0DTD1); test: Inhibition of untagged SARS-CoV-2 JPN/TY/WK-521 Main protease using FRET-based UIVT3 as substrate by continuous fluorescence assay
MT2 = test: Cytotoxicity against human MT2 cells assessed as reduction in cell viability at 3 uM incubated for 12 days by CCK-8 assay; type: toxicity, cell-based; settings: mt2, 288 h, time 12 day
[29] = Mutagenicity in Salmonella typhimurium TA1537 assessed as inhibition of bacterial growth at 0.152 to 333 ug incubated in absence of S9 fraction by micro-Ames test; type: toxicity, Salmonella enterica subsp. enterica serovar Typhimurium; settings: in vivo; dose 0.152-333 µg
[30] = Mutagenicity in Salmonella typhimurium TA100 assessed as fold increase in number of revertants at 0.152 to 333 ug incubated in presence of S9 fraction by micro-Ames test relative to control; type: toxicity, subcellular, Salmonella enterica subsp. enterica serovar Typhimurium; settings: dose 0.152-333 µg
[31] = Mutagenicity in Salmonella typhimurium TA100 assessed as inhibition of bacterial growth at 0.152 to 333 ug incubated in presence of S9 fraction by micro-Ames test; type: toxicity, subcellular, Salmonella enterica subsp. enterica serovar Typhimurium; settings: dose 0.152-333 µg
PBMC = test: Cytotoxicity against human PBMC cells assessed as reduction in cell viability at 3 uM incubated for 12 days by CCK-8 assay; type: toxicity, cell-based; settings: 288 h, time 12 day
[32] = Mutagenicity in Salmonella typhimurium TA1537 assessed as fold increase in number of revertants at 0.152 to 333 ug incubated in presence of S9 fraction by micro-Ames test relative to control; type: toxicity, subcellular, Salmonella enterica subsp. enterica serovar Typhimurium; settings: dose 0.152-333 µg
[33] = Mutagenicity in Salmonella typhimurium TA100 assessed as fold increase in number of revertants at 0.152 to 333 ug incubated in absence of S9 fraction by micro-Ames test relative to control; type: toxicity, Salmonella enterica subsp. enterica serovar Typhimurium; settings: in vivo; dose 0.152-333 µg
[34] = Mutagenicity in Salmonella typhimurium TA1535 assessed as inhibition of bacterial growth at 0.152 to 333 ug incubated in absence of S9 fraction by micro-Ames test; type: toxicity, Salmonella enterica subsp. enterica serovar Typhimurium; settings: in vivo; dose 0.152-333 µg
[35] = Cytotoxicity against human A549-hACE2-TMPRSS2 cells; type: toxicity, cell-based
[36] = Stability of compound in 50% MeCN in H2O containing 0.05% trifluoroacetic acid assessed as (1R,2S,5S)-3-((S)-3,3-dimethyl-2-(2,2,2-trifluoroacetamido)butanoyl)-N-((S)-1-(4-fluorobenzo[d]thiazol-2-yl)-1-oxo-3-((S)-2-oxopyrrolidin-3-yl)propan-2-yl)-6,6-dimethyl-3-azabicyclo[3.1.0]hexane-2-carboxamide formation at 5 degreeC measured after 24 hrs by RP-HPLC analysis; type: physicochemical
SARS-CoV-2 [37] = test: Antiviral activity against SARS-CoV-2 JPN/TY/WK-521 infected in Vero E6 cells assessed as inhibition of viral replication preincubated with cells for 1 day followed by viral infection and measured after 3 to 4 days by qRT-PCR analysis; type: functional, organism-based; settings: Severe acute respiratory syndrome coronavirus 2, JPN/TY/WK-521, Vero C1008

CC(C)(C)[C@H](NC(=O)C(F)(F)F)C(=O)N1C[C@H]2[C@@H]([C@H]1C(=S)N[C@@H](C[C@@H]1CCNC1=O)C(=O)c1nc3c(F)cccc3s1)C2(C)C
Activity [1]: Non-Toxic
Activity [2]: Non-Toxic
EC50 (SARS-CoV-2 [3]): 160 nM
CC50 [4]: > 200000 nM
Activity [5]: Non-Toxic
fold change (FC) [6]: > 2
fold change (FC) [7]: > 2
EC50 (SARS-CoV-2 [8]): 310 nM
EC50 (SARS-CoV-2 [9]): 320 nM
Activity [10]: Non-Toxic
Stability [11]: Stable
fold change (FC) [12]: > 2
CC50 [13]: > 100000 nM
fold change (FC) [14]: > 2
EC50 (SARS-CoV-2 [15]): 310 nM
fold change (FC) (SARS-CoV-2 [16]): 11
Activity (Vero C1008): Non-Toxic
Activity [17]: Non-Toxic
Activity (MOLT-4): Non-Toxic
CC50 [18]: > 100000 nM
fold change (FC) [19]: > 2
Activity [20]: Non-Toxic
fold change (FC) [21]: > 2
Activity [22]: Non-Toxic
fold change (FC) [23]: > 2
fold change (FC) (SARS-CoV-2 [24]): 0.085
bioavailability [25]: 72%
CC50 at 72 h [26]: > 100000 nM
Stability [27]: Stable
IC50 [28]: 88 nM
Activity (MT2): Non-Toxic
Activity [29]: Non-Toxic
fold change (FC) [30]: > 2
Activity [31]: Non-Toxic
Activity (PBMC): Non-Toxic
fold change (FC) [32]: > 2
fold change (FC) [33]: > 2
Activity [34]: Non-Toxic
CC50 [35]: > 100000 nM
Stability [36]: Unstable
EC50 (SARS-CoV-2 [37]): 220 nM

Source: ChEMBL document CHEMBL5365531, “Structure-Activity Relationship Studies of SARS-CoV-2 Main Protease Inhibitors Containing 4-Fluorobenzothiazole-2-carbonyl Moieties” (J Med Chem, 2023)
